How the values were obtained:
human NPY Y5 receptor [1] = molecular target: T1, human NPY Y5 receptor (Homo sapiens, UniProt Q15761); experiment: Affinity for NPY Y5 receptor ([125I] peptide YY binding, CHO cell membranes); conditions: inhibition of specific [125I] peptide YY binding, membranes of CHO cells expressing NPY Y5 receptor
T1 construct: expressed in transfected cells
T1 sequence (Q15761 1-445): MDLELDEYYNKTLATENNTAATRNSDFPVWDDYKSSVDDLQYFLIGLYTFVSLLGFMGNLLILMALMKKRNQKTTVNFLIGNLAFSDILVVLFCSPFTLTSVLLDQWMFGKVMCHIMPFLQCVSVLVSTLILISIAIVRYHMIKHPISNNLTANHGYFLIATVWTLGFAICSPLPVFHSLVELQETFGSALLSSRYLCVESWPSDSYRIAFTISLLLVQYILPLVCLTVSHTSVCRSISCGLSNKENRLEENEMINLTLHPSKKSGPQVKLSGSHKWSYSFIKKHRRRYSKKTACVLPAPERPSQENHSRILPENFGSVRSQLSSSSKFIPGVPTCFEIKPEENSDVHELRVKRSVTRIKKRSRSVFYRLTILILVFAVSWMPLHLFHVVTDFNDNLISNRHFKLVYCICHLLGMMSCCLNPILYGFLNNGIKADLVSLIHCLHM
How it was run: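 Membranes from CHO cells stably expressing human NPY Y5 receptor incubated with test compound and [125I] peptide YY (60 pM final) in HEPES-Hanks buffer with 0.1% BSA, pH 7.4, 25° C for 2 hours. Filter-bound radioactivity counted; non-specific binding with 200 nM peptide YY; IC50 against specific binding calculated.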

human NPY Y5 receptor [2] = molecular target: T1, human NPY Y5 receptor; experiment: cAMP production inhibitory activity in CHO cells; type: cell-based; conditions: against 50 nM NPY inhibition of forskolin stimulated cAMP, CHO cells expressing human NPY Y5 receptor
How it was run: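 CHO cells expressing human NPY Y5 receptor preincubated 20 min at 37 °C with 2.5 mM IBMX, then with compound for 5 min. Stimulated with 50 nM NPY plus 10 μM forskolin for 30 min. Reaction stopped with 1N HCl; supernatant cAMP measured by EIA.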

NPY Y1 receptor = molecular target: T2, NPY Y1 receptor (Homo sapiens, UniProt P25929); experiment: Affinity for NPY Y1 receptor (membranes from SK-N-MC cells); conditions: membranes from Y1-expression cells (human neuroblastoma, SK-N-MC); read-out: Binding IC50 for NPY Y1 receptor
T2 construct: membranes prepared from Y1-expression cells (human neuroblastoma, SK-N-MC); endogenous in cells; host or cells: SK-N-MC human neuroblastoma cells (membranes)
T2 sequence (P25929 1-384): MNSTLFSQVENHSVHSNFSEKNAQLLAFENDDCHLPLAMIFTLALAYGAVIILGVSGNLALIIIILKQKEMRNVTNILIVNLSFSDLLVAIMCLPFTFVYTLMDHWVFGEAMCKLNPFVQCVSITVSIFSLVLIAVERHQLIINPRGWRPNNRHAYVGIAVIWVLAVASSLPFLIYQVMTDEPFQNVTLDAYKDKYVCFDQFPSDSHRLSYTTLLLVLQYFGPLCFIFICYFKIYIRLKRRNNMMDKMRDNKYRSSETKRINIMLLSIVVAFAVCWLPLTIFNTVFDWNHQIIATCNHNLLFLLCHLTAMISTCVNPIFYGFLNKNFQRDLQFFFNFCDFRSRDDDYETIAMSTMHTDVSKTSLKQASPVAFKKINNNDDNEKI
Protocol: (§1) The membranes prepared from the above CHO cells expressing NPY Y5 receptor, the compound of the present invention and 30,000 cpm [^125I] peptide YY (60 pM of final concentration: Amersham) were incubated in the assay buffer (20 mM HEPES-Hanks buffer containing 0.1% bovine serum albumin, pH 7.4) at 25° C. for 2 hours, and then the mixture was filtered with a glassfilter GF/C treated with polyethyleneimine. After the glassfilter was washed with 50 mM Tris-HCl buffer (pH 7.4), the radioactivity on the filter was measured with a gamma counter. The non-specific binding was detected in the presence of 200 nM of peptide YY. The 50% inhibitory concentration of the test compound against the specific peptide YY binding (IC50 value) was calculated (Inui, A. et al. Endocrinology 131, 2090-2096 (1992)).
(§2) Using the membranes prepared from Y1-expression cells (human neuroblastoma, SK-N-MC) and the membranes prepared from Y2-expression cells (human neuroblastoma, SMS-KAN), the experiment was carried out in a similar way as Experiment 1 to determine the affinity for NPY Y1 receptor and NPY Y2 receptor.

NPY Y2 receptor = molecular target: T3, NPY Y2 receptor (Homo sapiens, UniProt P49146); experiment: Affinity for NPY Y2 receptor (membranes from SMS-KAN cells); conditions: membranes from Y2-expression cells (human neuroblastoma, SMS-KAN); read-out: Binding IC50 for NPY Y2 receptor
T3 construct: membranes prepared from Y2-expression cells (human neuroblastoma, SMS-KAN); endogenous in cells; host or cells: SMS-KAN human neuroblastoma cells (membranes)
T3 sequence (P49146 1-381): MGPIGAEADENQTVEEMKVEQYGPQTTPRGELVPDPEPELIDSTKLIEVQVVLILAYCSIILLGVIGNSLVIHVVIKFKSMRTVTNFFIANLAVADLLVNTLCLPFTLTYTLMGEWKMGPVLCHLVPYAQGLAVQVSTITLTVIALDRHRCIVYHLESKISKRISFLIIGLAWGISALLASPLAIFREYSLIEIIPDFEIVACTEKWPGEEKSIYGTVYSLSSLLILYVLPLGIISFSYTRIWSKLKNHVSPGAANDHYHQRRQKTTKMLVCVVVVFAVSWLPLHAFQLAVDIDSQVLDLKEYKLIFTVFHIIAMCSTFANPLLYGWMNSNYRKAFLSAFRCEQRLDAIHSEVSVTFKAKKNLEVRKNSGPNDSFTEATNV
Protocol: as §1, §2

| IC50 (human NPY Y5 receptor [1]) | IC50 (human NPY Y5 receptor [2]) | IC50 (NPY Y1 receptor) | IC50 (NPY Y2 receptor) | Structure (SMILES) |
| --- | --- | --- | --- | --- |
| 0.00044 µM | 0.009 µM | ≥ 100 µM | ≥ 100 µM | Cc1cc(N2C[C@@H](C)O[C@@H](C)C2)ccc1NC(=O)C1CCC(NS(=O)(=O)C(C)C)CC1 (stereo partly shown) [Ia-54] |
| 0.0011 µM | 0.029 µM | ≥ 100 µM | ≥ 100 µM | CC(C)(C)S(=O)(=O)NC1CCC(C(=O)Nc2ccc3oc(=O)ccc3c2)CC1 (stereo not shown) [Ia-62] |
| 0.0063 µM | 0.075 µM | ≥ 100 µM | ≥ 100 µM | C[C@@H]1CN(c2ccc(NC(=O)N3CCC(NS(=O)(=O)C(C)(C)C)CC3)cc2)C[C@H](C)O1 [Ia-67] |
| 0.0011 µM | 0.022 µM | ≥ 100 µM | ≥ 100 µM | C[C@@H]1CN(c2ccc(NC(=O)c3ccc(NS(=O)(=O)C(C)(C)C)cc3)cc2)C[C@H](C)O1 [Ia-124] |
| 0.0023 µM | 0.058 µM | ≥ 100 µM | ≥ 100 µM | CC(C)(C)S(=O)(=O)Nc1ccc(C(=O)Nc2ccc3ncsc3c2)cc1 [Ia-126] |
| 0.0019 µM | 0.025 µM | ≥ 100 µM | ≥ 100 µM | CC(C)(C)S(=O)(=O)Nc1ccc(C(=O)Nc2ccc(N3CC=CC3)cc2)cc1 [Ia-139] |
| 0.001 µM | 0.024 µM | ≥ 100 µM | ≥ 100 µM | CC(C)S(=O)(=O)NC1CCC(C(=O)Nc2ccc(C(F)(F)F)cc2)CC1 (stereo not shown) [Ia-140] |
| 0.0046 µM | 0.016 µM | ≥ 100 µM | ≥ 100 µM | CC(C)(C)S(=O)(=O)NC1CCC(C(=O)Nc2ccc(C(F)(F)F)cn2)CC1 (stereo not shown) [Ia-178] |
| 0.00011 µM | 0.0016 µM | ≥ 100 µM | ≥ 100 µM | CC(C)S(=O)(=O)NC1CCC(C(=O)Nc2cccc(OC3CCCC3)c2)CC1 (stereo not shown) [Ia-199] |
| 0.0014 µM | 0.018 µM | ≥ 100 µM | ≥ 100 µM | CC(C)(C)S(=O)(=O)NC1CCC(C(=O)Nc2ccc(OC3CCOCC3)cc2)CC1 (stereo not shown) [Ia-200] |
